# In patent publication US7091351B2, “Vanadium compounds for treating cancer” (Parker Hughes Institute, priority 1998, dated 2006):
# Tested on: Tera-2 testicular cancer cells
# Test: MTT cytotoxicity assay of vanadocenes, TERA-2 cells
# Format: cell-based, human
# Conditions: 24 h, 1.9-250 μM
# Procedure: (§1) Human testicular cancer cell lines, Tera-2 (embryonal carcinoma) and Ntera-2 (pluripotent embryonal carcinoma) were obtained from the American Type Culture Collection (ATCC) (Rockeville, Md.) and propagated in T-25, T-75, or T-150 cm^2 tissue culture flasks (Corning Corp., Corning, N.Y.) in McCoy's 5A medium and Dulbecco's modified Eagle's medium respectively. Both media were supplemented with 10% fetal calf serum (FCS), 4 mM glutamine, 100 U/ml penicillin G, and […] streptomycin sulfate. All tissue culture reagents were obtained from Life Technologies Inc. (GIBCO-BRL), Gaithersburg, Md. Cell lines were cultivated for a minimum of two passages after thawing prior to experimentation. Other cell lines that were used in this study were the human B-lineage acute lymphoblastic leukemia (ALL) cell line NALM-6. Uckun, F. M., Evans, W. E., Forsyth, C. J., Waddick, K. G., Tuel-Ahlgren, L., Chelstrom, L. M., Burkhardt, A., Bolen, J., Myers, D. E. Biotherapy of B-cell precursor leukemia by targeting genistein to CD19-associated tyrosine kinase. Science (Washington DC) 267:886–91, 1995; T-lineage ALL cell line MOLT-3, Waurzyniak, B., Shneider, E. A., Tumer, N., Yanishevski, Y., Gunther, R., Chelstrom, L., Wendorf, H., Myers, D. E., Irvin, J. D., Messinger, Y., Ek, O., Zeren, T., Chandan-Langlie, M., Evans, W. E., Uckun, F. M. In vivo toxicity, pharmacokinetics, and antileukemic activity of TXU (anti-CD7)-pokeweed antiviral protein immunotoxin. Clinical Cancer Research 3:881–890, 1997; AML cell line HL-60, Perentesis, J. P., Waddick, K. G., Bendel, A. E., Shao, Y., Warman, B. E., Chandan-Langlie, M., and Uckun, F. M. Induction of apoptosis in multi-drug resistant andradiation-resistant acute myeloid leukemia cells by a recombinant fusion toxin directed against the granulocyte macrophage colony stimulating factor receptor. Clin. Cancer Res. 3:347–355, 1997; breast cancer cell lines MDA-MB-231 and BT-20, Uckun, F. M., Narla, R. K., Jun, X., Zeren, T., Venkatachalam, T., Waddick, K. G., Rostostev, A., Myers, D. E. Cytotoxic activity of EGF-genstein against breast cancer cells. Clin. Cancer Res. 4:901–912, 1998; glioblastoma cell lines U87 and U373, Narla, R. K., Liu, X., Myers, D. E., and Uckun, F. M. 4-(3′-Bromo-4′hydroxylphenyl)-amino-6,7-dimethoxyquinazoline (WHI-P154): A novel quinazoline derivative with potent cytotoxic activity against human glioblastoma cells. Clin. Cancer Res. 4:1405–1414, 1998.
# (§2) MTT (3-[4,5-dimethyl thiazol-2-yl]-2,5-diphenyltetrazolium bromide)-based colorimetric assays were used for evaluation of the cytotoxicity of vanadocene compounds. Mosmann, T. Rapid colorimetric assay for cellular growth and survival: application to proliferation and cytotoxicity assays. J. Immunol. Methods, 65: 55–63, 1983. Briefly, cells were harvested with 0.125% (w/v) trypsin-0.02% EDTA (GIBCO-BRL) from exponential-phase maintenance cultures and centrifuged (300 g×5 min). After suspension and counting, cells were dispensed within triplicate 96-well tissue culture plates in 100 μl volumes. After 24 h incubation, the culture medium was discarded and replaced with 100 μl of fresh medium containing serial two-fold dilutions of drugs in medium to yield 1.9 μM to 250 μM. All compounds were reconstituted in DMSO to a concentration of 100 mM, and the stock solution was made fresh for each experiment. Control wells consisted of medium containing 0.25% of DMSO alone were used for solvent control. Culture plates were then incubated for 24 h before adding 10 μl of MTT solution (5 mg/ml in PBS) to each well. Wells containing only medium and MTT were used as controls for each plate. The tetrazolium/formazan reaction was allowed to proceed for 4 h at 37° C., and then 100 μl of the solubilization buffer (10% sodium dodecyl sulfate in 0.1% HCl) were added to all wells and mixed thoroughly to dissolve the dark blue formazan crystals. […]
row,Compound,IC50 [µM]
1,"O=S(=O)(O)C(F)(F)F.O=S(=O)(O)C(F)(F)F.[V+2].c1cc[cH-]c1.c1cc[cH-]c1 [VDT, VCp2(O3SCF3)2]",76
2,V(Me5Cp)OCl [VPMOC],> 250
3,VCp2(bpy)(O3SCF3)2 [VD(bpy)],37
4,TiCp2Cl2 [TDC],> 250
5,VCp2(NCO)2 [VDOCN],31
6,V(MeCp)2Cl2.0.5 H2O [VMDC],123
7,MoCp2Cl2 [MDC],> 250
8,VCp2(H) [VDH],118
9,"CC#N.[Cl-].[Cl-].[Cl-].[Cl-].[Cl-].[Fe+3].[V+4].c1cc[cH-]c1.c1cc[cH-]c1 [VDFe, VCp2Cl (CH3CN)(FeCl4)]",100

# Tested on: Ntera-2 testicular cancer cells
# Test: Flow cytometric TUNEL apoptosis assay, NTERA-2 cells
# Format: cell-based, human
# Conditions: 24 h, TUNEL-positive nuclei
# Procedure: (§3) A flow cytometric two-color terminal […] transferase (TdT)-mediated digoxigenin-uridine triphosphate (dUTP) nick-end labeling assay (TUNEL) was employed to detect apoptotic nuclei. Gavrieli, Y., Sherman, Y., Ben-Sasson, S. A. Identification of programmed cell death in situ via specific labeling of nuclear DNA fragmentation. J. Cell Biol., 119: 493–501, 1992. Exponentially growing cells (10^6/ml) were incubated in DMSO alone (0.1%) or treated with 100 μM each of the 16 vanadocenes (VDB, VDC, VMDC, VDI, VDA, VDCN, VDOCN, VDSCN, VDSeCN, VDT, VDCO, VDFe, VD(acac), VDH, VD(dpy), and VD(dtc) in 0.1% DMSO for 24 h. Cells were washed in PBS, fixed in 4% paraformaldehyde in PBS for 15 min on ice. Following two washings in PBS, they were permeabilized with 0.1% Triton X-100 in 0.1% sodium citrate for 2 min on ice, and washed twice in PBS. Labeling of exposed 3′-hydroxyl (3′-OH) ends of fragmented nuclear DNA was performed using TdT and fluorescein isothiocyanate (FITC)-conjugated dUTP according to the manufacturer's recommendations (Boehringer Mannheim, Indianapolis, Ind.). Cells were counterstained with 5 μg/ml PI. Control samples included: (i) untreated cells; (ii) cells incubated with the reaction mixture without the TdT enzyme. Cells were analyzed with a FACS Calibur flow cytometer (Becton Dickinson, Mountain View, Calif.). Relative DNA content (PI) was detected with band-pass filter 585/42, and dUTP incorporation (FITC) was detected with band-pass filter 530/30. Fluorescence was compensated for in the acquisition software using single-label control samples. Data were acquired in listmode, gated to 10,000 events per sample, and analyzed with the use of CELLQuest software program (Becton Dickinson). […] Vanadocene-induced apoptosis is shown by an increase in the number of cells staining with FITC-dUTP. The M1 and M2 gates were used to demarcate non-apoptotic and apoptotic PI-counterstained cell populations, respectively. TUNEL assays were performed using two testicular cell lines Tera-2 and Ntera-2 following exposure to each of the 16 vanadocenes. In other experiments, MC540 binding (as an early marker of apoptosis) and PI permeability (as a marker of advanced stage apoptosis) were simultaneously measured in human cancer cells 24 hours after exposure to vanadocenes, as previously described. Uckun, F. M., Narla, R. K., Jun, X., Zeren, T., Venkatachalam, T., Waddick, K. G., Rostostev, A., Myers, D. E. Cytotoxic activity of EGF-genstein against breast cancer cells. Clin. Cancer Res. 4:901–912, 1998. Vassilev, A., Ozer, Z., Navara, C., Mahajan, S., and Uckun, F. M. Bruton's tyrosine kinase as an inhibitor of the Fas/CD95 death-inducing signaling complex. J. Biol. Chem. 274:1646–56, 1999. Whole cells were analyzed using a FACStar Plus flow cytometer (Becton Dickinson, San Jose, Calif.). All analyses were done using 488 nm excitation from an argon laser. MC540 and PI emissions were split with a 600 nm short pass dichroic mirror and a 575 nm band pass filter was placed in front of one photomultiplier tube to measure MC540 emission and a 635 nm band pass filter was used for PI emission.
row,Compound,% Apoptosis at 100 μM NTERA-2
1,"O=S(=O)(O)C(F)(F)F.O=S(=O)(O)C(F)(F)F.[V+2].c1cc[cH-]c1.c1cc[cH-]c1 [VDT, VCp2(O3SCF3)2]",55 ± 26 (N = 4) %
2,V(Me5Cp)OCl [VPMOC],"6 (6, 7) %"
3,VCp2(bpy)(O3SCF3)2 [VD(bpy)],"78 (77, 78) %"
4,VCp2(NCO)2 [VDOCN],"95 (94, 96) %"
5,V(MeCp)2Cl2.0.5 H2O [VMDC],"13 (13, 14) %"
6,VCp2(H) [VDH],20 ± 5 (N = 3) %
7,"CC#N.[Cl-].[Cl-].[Cl-].[Cl-].[Cl-].[Fe+3].[V+4].c1cc[cH-]c1.c1cc[cH-]c1 [VDFe, VCp2Cl (CH3CN)(FeCl4)]","87 (81, 94) %"

# Tested on: Tera-2 testicular cancer cells
# Test: Flow cytometric TUNEL apoptosis assay, TERA-2 cells
# Format: cell-based, human
# Conditions: 24 h, TUNEL-positive nuclei
# Procedure: as §3
row,Compound,% Apoptosis at 100 μM TERA-2
1,"O=S(=O)(O)C(F)(F)F.O=S(=O)(O)C(F)(F)F.[V+2].c1cc[cH-]c1.c1cc[cH-]c1 [VDT, VCp2(O3SCF3)2]","71 (71, 71) %"
2,V(Me5Cp)OCl [VPMOC],"5 (5, 6) %"
3,VCp2(NCO)2 [VDOCN],"85 (80, 90) %"
4,V(MeCp)2Cl2.0.5 H2O [VMDC],"45 (27, 61) %"
5,VCp2(H) [VDH],84 ± 2 (N = 3) %
6,"CC#N.[Cl-].[Cl-].[Cl-].[Cl-].[Cl-].[Fe+3].[V+4].c1cc[cH-]c1.c1cc[cH-]c1 [VDFe, VCp2Cl (CH3CN)(FeCl4)]","85 (84, 87) %"

# Tested on: U373 glioblastoma cells
# Test: MTT cytotoxicity assay of vanadocenes, U373 cells
# Format: cell-based, human
# Conditions: 24 h
# Procedure: as §1, §2
row,Compound,IC50 [µM]
1,TiCp2Cl2 [TDC],> 250
2,V(MeCp)2Cl2.0.5 H2O [VMDC],61
3,MoCp2Cl2 [MDC],> 250
4,VCp2(H) [VDH],> 250

# Tested on: Ntera-2 testicular cancer cells
# Test: MTT cytotoxicity assay of vanadocenes, NTERA-2 cells
# Format: cell-based, human
# Conditions: 24 h, 1.9-250 μM
# Procedure: as §1, §2
row,Compound,IC50 [µM]
1,"O=S(=O)(O)C(F)(F)F.O=S(=O)(O)C(F)(F)F.[V+2].c1cc[cH-]c1.c1cc[cH-]c1 [VDT, VCp2(O3SCF3)2]",137
2,V(Me5Cp)OCl [VPMOC],77
3,VCp2(bpy)(O3SCF3)2 [VD(bpy)],53
4,TiCp2Cl2 [TDC],> 250
5,VCp2(NCO)2 [VDOCN],63
6,V(MeCp)2Cl2.0.5 H2O [VMDC],86
7,MoCp2Cl2 [MDC],> 250
8,VCp2(H) [VDH],125
9,"CC#N.[Cl-].[Cl-].[Cl-].[Cl-].[Cl-].[Fe+3].[V+4].c1cc[cH-]c1.c1cc[cH-]c1 [VDFe, VCp2Cl (CH3CN)(FeCl4)]",113
